The record followed here is BindingDB's records for doi:10.1016/j.bmc.2006.09.047 (Astellas Pharma, 2007).

The target of this assay is PI3-kinase p110α (Bos taurus). Nature of the assay: The test compounds and enzyme were mixed in buffer, and the substrate and [gamma-33P] ATP/ATP were added to the mixture to initiate the reaction. After allowing the reaction to proceed at room temperature for 120 min, wheat germ agglutinin-coated SPA beads (Amersham) was added. The mixture was left to stand for 5 min and then centrifuged. Radi. The settings on record: pH 7.4.

Bounds are passed on as bounds.

With `Cc1nc2ccc(Cl)cn2c1-c1ccn(S(=O)(=O)c2ccc([N+](=O)[O-])cc2)n1` [3-{6-chloro-2-methylimidazo[1,2-a]pyridin-3-yl}-1-[(4-nitrobenzene)sulfonyl]-1H-pyrazole], the IC50 is more than 30000 nM.

Turning to `Cc1ccc([N+](=O)[O-])cc1S(=O)(=O)n1ccc(-c2cnc3ccc(Cl)cn23)c1` [3-{6-chloroimidazo[1,2-a]pyridin-3-yl}-1-[(2-methyl-5-nitrobenzene)sulfonyl]-1H-pyrrole], the IC50 stood at 100 nM.
